Data as given in ChEMBL document CHEMBL5034009, “Second-Generation Dual FXR/sEH Modulators with Optimized Pharmacokinetics” (J Med Chem, 2021).
pEC50, pIC50: −log10 of the molar value. Converted amounts (≈) assume the structure as drawn. The source made the active and inactive calls. The calls are words filed in the database; no cut-off is given here.

How the values were obtained:
[1] = molecular target: T1, Bifunctional epoxide hydrolase 2 (Homo sapiens, UniProt P34913); assay: Inhibition of recombinant human sEH using PHOME as substrate preincubated for 30 mins followed by substrate addition and measured after 30 mins by fluoresence-based assay
T1 sequence (P34913 whole entry): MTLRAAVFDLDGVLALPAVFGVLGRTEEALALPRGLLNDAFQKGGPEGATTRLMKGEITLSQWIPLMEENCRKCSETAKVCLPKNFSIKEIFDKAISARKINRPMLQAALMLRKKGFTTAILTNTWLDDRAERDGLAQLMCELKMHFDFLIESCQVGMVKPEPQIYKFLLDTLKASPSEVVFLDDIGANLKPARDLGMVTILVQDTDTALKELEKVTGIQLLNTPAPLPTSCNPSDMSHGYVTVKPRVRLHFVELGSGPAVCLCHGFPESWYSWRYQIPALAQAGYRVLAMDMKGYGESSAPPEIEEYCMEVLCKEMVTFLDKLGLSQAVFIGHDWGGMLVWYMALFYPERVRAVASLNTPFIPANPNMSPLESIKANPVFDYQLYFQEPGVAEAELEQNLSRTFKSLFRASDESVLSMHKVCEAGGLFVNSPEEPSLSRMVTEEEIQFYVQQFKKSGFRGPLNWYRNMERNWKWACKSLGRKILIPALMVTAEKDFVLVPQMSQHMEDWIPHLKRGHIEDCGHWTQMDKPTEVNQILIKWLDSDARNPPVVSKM

[2] = Metabolic stability in Sprague-Dawley rat liver microsomes assessed as intrinsic clearance at 10 uM preincubated with NADPH regenerating system for 5 mins followed by addition of microsome upto 60 mins by HPLC analysis; format: ADME; conditions: read-out: CLH
[3] = Metabolic stability in Sprague-Dawley rat liver microsomes assessed as half life at 10 uM preincubated with NADPH regenerating system for 5 mins followed by addition of microsome upto 60 mins by HPLC analysis; format: ADME
[4] = molecular target: T2, Bile acid receptor (Homo sapiens) (UniProt Q96RI1); assay: Agonist activity at recombinant human full-length FXR expressed in HeLa cells co-expressing human RXRalpha at 30 uM after 24 hrs by Dual-Glo luciferase assay; format: cell-based
T2 sequence (whole entry): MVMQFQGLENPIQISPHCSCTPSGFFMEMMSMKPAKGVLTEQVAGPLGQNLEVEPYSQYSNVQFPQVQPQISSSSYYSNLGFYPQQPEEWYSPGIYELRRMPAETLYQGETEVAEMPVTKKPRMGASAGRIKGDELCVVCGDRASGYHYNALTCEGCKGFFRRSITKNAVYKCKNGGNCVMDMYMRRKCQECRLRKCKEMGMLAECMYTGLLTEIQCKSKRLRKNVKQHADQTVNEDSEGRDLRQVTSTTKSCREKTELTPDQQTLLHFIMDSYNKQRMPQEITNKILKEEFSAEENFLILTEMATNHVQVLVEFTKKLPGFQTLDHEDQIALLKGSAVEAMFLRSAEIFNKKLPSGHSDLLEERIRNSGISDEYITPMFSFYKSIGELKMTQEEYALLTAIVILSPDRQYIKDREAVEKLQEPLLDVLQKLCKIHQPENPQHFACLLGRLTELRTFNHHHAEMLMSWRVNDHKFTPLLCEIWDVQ

Bile acid receptor [5] = molecular target: T3, Bile acid receptor (Homo sapiens, UniProt Q96RI1)
T3 sequence (Q96RI1 whole entry): T2 sequence (whole entry)
Description: (§1) Agonist activity at recombinant human full-length FXR expressed in HeLa cells co-expressing human RXRalpha after 24 hrs by Dual-Glo luciferase assay

HepG2 [6] = assay: Effect on FXR regulated gene expression in human HepG2 cells assessed as induction of PPARalpha expression at 1 uM after 8 hrs by qRT-PCR analysis
HepG2 [7] = assay: Cytotoxicity against human HepG2 cells assessed as cell viability at 100 uM by WST-1 assay; format: cell-based; conditions: hepg2, 100 µM
HepG2 [8] = assay: Effect on FXR regulated gene expression in human HepG2 cells assessed as induction of SREBP1c expression at 1 uM after 8 hrs by qRT-PCR analysis
[9] = Aqueous solubility of compound; format: physicochemical; conditions: buffer
[10] = Tmax in CD-1 mouse plasma at 10 mg/kg, po administered as single dose by LC-MS analysis; format: ADME, organism-based
[11] = Cmax in CD-1 mouse plasma at 10 mg/kg, po administered as single dose by LC-MS analysis; format: ADME, organism-based; design: route oral, dose 10 mg/kg
[12] = Half life in CD-1 mouse plasma at 10 mg/kg, po administered as single dose by LC-MS analysis; format: ADME, organism-based
Bile acid receptor [13] = molecular target: T3, Bile acid receptor; conditions: hela
Description: as §1

Compound	pIC50 [1]	microsomal CLint at 10 µM [2]	half-life at 10 µM [3]	pEC50 (Bile acid receptor [5])	other results
CC(C)(C)c1ccc(C(=O)NCc2c(Cl)cc(NS(C)(=O)=O)cc2Cl)cc1	6.57	16 µL/min/mg	82 min	–	Activity [4]: inactive
CS(=O)(=O)Nc1ccc(CNC(=O)c2ccc(S(F)(F)(F)(F)F)cc2)c(Cl)c1	8.00	9.8 µL/min/mg	138 min	–	Activity [4]: inactive
CC(C)S(=O)(=O)Nc1ccc(CNC(=O)c2ccc(C(C)(C)C)cc2)c(Cl)c1	7.95	23 µL/min/mg	59 min	–	–
CS(=O)(=O)Nc1ccc(CNC(=O)c2ccc(C3(C(F)(F)F)CC3)cc2)c(Cl)c1	8.37	7.5 µL/min/mg	182 min	–	Activity (HepG2 [7]): Non-Toxic; solubility [9]: 2.9 µg/mL (≈ 6.49 µM)
CCOc1ccc(C(=O)NCc2ccc(NS(C)(=O)=O)cc2Cl)cc1	7.51	12 µL/min/mg	108 min	5.66	–
CS(=O)(=O)Nc1ccc(CNC(=O)c2ccc(C(F)(F)F)cc2)c(Cl)c1	8.15	9.6 µL/min/mg	146 min	–	Tmax [10]: 1 h; Cmax [11]: 4930 ng/mL; half-life [12]: 312 min; Activity (HepG2 [7]): Non-Toxic; solubility [9]: 5.7 µg/mL (≈ 14 µM)
CC(C)(C)c1ccc(C(=O)NCc2ccc(N)cc2Cl)cc1	–	–	–	7.40	–
COC(C)(C)c1ccc(C(=O)NCc2ccc(NS(C)(=O)=O)cc2Cl)cc1	8.05	24 µL/min/mg	55 min	–	Activity [4]: inactive
CS(=O)(=O)Nc1ccc(CNC(=O)c2ccc(CC(F)(F)F)cc2)c(Cl)c1	7.89	22 µL/min/mg	62 min	5.40	–
CS(=O)(=O)Nc1ccc(CNC(=O)c2ccc(N3CCCCC3)cc2)c(Cl)c1	7.15	20 µL/min/mg	67 min	6.39	–
CCS(=O)(=O)Nc1ccc(CNC(=O)c2ccc(C(C)(C)C)cc2)c(Cl)c1	8.21	28 µL/min/mg	47 min	6.30	–
CS(=O)(=O)Nc1ccc(CNC(=O)c2ccc(OC(F)(F)F)cc2)c(Cl)c1	7.66	9.1 µL/min/mg	148 min	5.96	–
CC(C)(C)c1ccc(C(=O)NCc2ccc(NS(=O)(=O)C3CC3)cc2Cl)cc1	8.11	41 µL/min/mg	33 min	5.82	–
CS(=O)(=O)Nc1ccc(CNC(=O)c2ccc(C34CC(C3)C4)cc2)c(Cl)c1	7.31	17 µL/min/mg	81 min	6.25	–
CC(C)(C)c1ccc(C(=O)NCc2c(F)cc(NS(C)(=O)=O)cc2F)cc1	7.07	9.3 µL/min/mg	145 min	–	Activity [4]: inactive
CS(=O)(=O)Nc1ccc(CNC(=O)c2ccc(C3(O)CC3)cc2)c(Cl)c1	–	–	–	–	EC50 (Bile acid receptor [13]): Nd(Unstable)
CS(=O)(=O)Nc1ccc(CNC(=O)c2ccc(N3CCC3)cc2)c(Cl)c1	7.03	8.6 µL/min/mg	157 min	4.89	–
CS(=O)(=O)Nc1ccc(CNC(=O)c2ccc(N3CCCC3)cc2)c(Cl)c1	–	17 µL/min/mg	77 min	–	–
CC(F)(F)c1ccc(C(=O)NCc2ccc(NS(C)(=O)=O)cc2Cl)cc1	8.70	9.6 µL/min/mg	141 min	5.92	–
CN(C)c1ccc(C(=O)NCc2ccc(NS(C)(=O)=O)cc2Cl)cc1	–	25 µL/min/mg	53 min	–	–

Further lines, with some results ahead:

pIC50 [1]	microsomal CLint at 10 µM [2]	half-life at 10 µM [3]	pEC50 (Bile acid receptor [5])	Compound	other results
7.80	47 µL/min/mg	29 min	–	CC(C)(C)c1ccc(C(=O)NCc2ccc(NS(C)(=O)=O)cc2F)cc1	Activity [4]: inactive
6.76	4.1 µL/min/mg	343 min	5.36	CS(=O)(=O)Nc1ccc(CNC(=O)c2ccc(N3CCOCC3)cc2)c(Cl)c1	–
6.77	1.5 µL/min/mg	1210 min	7.49	CC(C)(O)c1ccc(C(=O)NCc2ccc(NS(C)(=O)=O)cc2Cl)cc1	Activity (HepG2 [6]): inactive; Activity (HepG2 [7]): Non-Toxic; Activity (HepG2 [8]): inactive; solubility [9]: 48 µg/mL (≈ 121 µM)
–	21 µL/min/mg	65 min	–	CC(C)(C)c1ccc(C(=O)NCc2ccc(NS(C)(=O)=O)cc2Cl)cc1	–
7.68	17 µL/min/mg	78 min	–	CC(C)(C)c1ccc(C(=O)NCc2ccc(NS(=O)(=O)C(F)(F)F)cc2Cl)cc1	Activity [4]: inactive
8.40	14 µL/min/mg	96 min	5.49	CS(=O)(=O)Nc1ccc(CNC(=O)c2ccc(C(F)(F)C(F)(F)F)cc2)c(Cl)c1	–
7.42	5 µL/min/mg	270 min	–	COc1ccc(C(=O)NCc2ccc(NS(C)(=O)=O)cc2Cl)cc1	Activity [4]: inactive
7.92	12 µL/min/mg	111 min	6.40	CC(C)Oc1ccc(C(=O)NCc2ccc(NS(C)(=O)=O)cc2Cl)cc1	–
6.95	5.4 µL/min/mg	254 min	–	CS(=O)(=O)Nc1ccc(CNC(=O)c2ccc(C3(O)COC3)cc2)c(Cl)c1	Activity [4]: inactive
